# Measured values from patent US20240158392A1 (Janssen Biotech, Inc., priority 2021, published 2024).
# Target: SIK2 (Homo sapiens, UniProt Q9H0K1)
# Test: SIK2 Enzymatic Assay High Version 2 (High ATP)
# Format: biochemical
# Conditions: not given
# Method in brief: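 At room temperature, enzyme (6 nM, 2× final) was preincubated with compound for 30 min, then 6 mM ATP and 400 μM HDAC5tide (both 2× final) were added for 2 h. ADP formed was measured by ADP-Glo Max (2 h reagent, 1 h detection) using luminescence.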
# Chain of SIK2 (Q9H0K1 whole entry, species assumed): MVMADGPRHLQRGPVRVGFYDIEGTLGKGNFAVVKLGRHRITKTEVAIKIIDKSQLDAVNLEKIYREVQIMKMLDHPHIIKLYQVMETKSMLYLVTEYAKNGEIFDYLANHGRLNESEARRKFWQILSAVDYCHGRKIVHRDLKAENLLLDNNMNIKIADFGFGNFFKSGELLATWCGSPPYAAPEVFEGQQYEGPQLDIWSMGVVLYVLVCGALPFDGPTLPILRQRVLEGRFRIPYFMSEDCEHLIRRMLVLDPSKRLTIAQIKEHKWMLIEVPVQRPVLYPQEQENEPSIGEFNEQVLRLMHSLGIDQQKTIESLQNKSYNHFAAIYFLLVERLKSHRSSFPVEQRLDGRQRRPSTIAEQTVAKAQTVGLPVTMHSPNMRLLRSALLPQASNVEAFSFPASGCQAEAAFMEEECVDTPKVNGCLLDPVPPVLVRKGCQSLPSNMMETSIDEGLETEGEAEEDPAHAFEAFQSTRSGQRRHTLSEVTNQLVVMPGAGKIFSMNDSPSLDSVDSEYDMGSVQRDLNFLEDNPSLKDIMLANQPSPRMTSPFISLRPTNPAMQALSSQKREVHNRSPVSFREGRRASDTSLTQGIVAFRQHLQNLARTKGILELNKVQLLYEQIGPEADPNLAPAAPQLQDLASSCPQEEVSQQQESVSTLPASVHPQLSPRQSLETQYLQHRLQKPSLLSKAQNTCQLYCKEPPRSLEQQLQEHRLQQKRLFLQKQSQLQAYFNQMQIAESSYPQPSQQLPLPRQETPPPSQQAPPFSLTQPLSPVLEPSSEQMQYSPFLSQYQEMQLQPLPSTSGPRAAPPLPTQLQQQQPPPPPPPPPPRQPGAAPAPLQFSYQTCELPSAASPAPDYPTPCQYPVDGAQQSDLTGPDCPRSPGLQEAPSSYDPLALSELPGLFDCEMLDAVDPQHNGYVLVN
row,Structure (SMILES),IC50 [µM]
1,"CNC(=O)c1cccc(Nc2cc3cc(-c4cc(C)ncc4O[C@H]4C[C@H]5COC[C@@H](C4)N5C)ccn3n2)n1 [Example 407, N-methyl-6-[[5-[2-methyl-5-[[(1S,5R,7s)-9-methyl-3-oxa-9-azabicyclo[3.3.1]nonan-7-yl]oxy]-4-pyridyl]pyrazolo[1,5-a]pyridin-2-yl]amino]pyridine-2-carboxamide]",0.00849
2,"Cc1cc(-c2ccn3nc(Nc4ccnnc4)cc3c2)c(O[C@H]2C[C@H]3COC[C@@H](C2)N3C)cn1 [Example 408, 5-[2-methyl-5-[[(1S,5R,7s)-9-methyl-3-oxa-9-azabicyclo[3.3.1]nonan-7-yl]oxy]-4-pyridyl]-N-pyridazin-4-yl-pyrazolo[1,5-a]pyridin-2-amine]",0.001
3,"CNC(=O)c1ccnc(Nc2cc3cc(-c4cc(C)ncc4O[C@H]4C[C@H]5COC[C@@H](C4)N5C)ccn3n2)c1 [Example 409, N-methyl-2-[[5-[2-methyl-5-[[(1S,5R,7s)-9-methyl-3-oxa-9-azabicyclo[3.3.1]nonan-7-yl]oxy]-4-pyridyl]pyrazolo[1,5-a]pyridin-2-yl]amino]pyridine-4-carboxamide]",< 0.000847
4,"Cc1cc(-c2ccn3nc(Nc4ccnc(C)n4)cc3c2)c(O[C@H]2C[C@H]3COC[C@@H](C2)N3C)cn1 [Example 410, 5-[2-methyl-5-[[(1R,5S,7s)-9-methyl-3-oxa-9-azabicyclo[3.3.1]nonan-7-yl]oxy]-4-pyridyl]-N-(2-methylpyrimidin-4-yl)pyrazolo[1,5-a]pyridin-2-amine]",< 0.000847
5,"Cc1cc(-c2ccn3nc(Nc4ccc(C(F)(F)F)cn4)cc3c2)c(O[C@H]2C[C@H]3COC[C@@H](C2)N3C)cn1 [Example 411, 5-[2-methyl-5-[[(1S,5R,7s)-9-methyl-3-oxa-9-azabicyclo[3.3.1]nonan-7-yl]oxy]-4-pyridyl]-N-[5-(trifluoromethyl)-2-pyridyl]pyrazolo[1,5-a]pyridin-2-amine]",0.00152
6,"Cc1cc(-c2ccn3nc(Nc4cn(C)nc4F)cc3c2)c(O[C@H]2C[C@H]3COC[C@@H](C2)N3C)cn1 [Example 412, N-(3-fluoro-1-methyl-pyrazol-4-yl)-5-[2-methyl-5-[[(1S,5R,7s)-9-methyl-3-oxa-9-azabicyclo[3.3.1]nonan-7-yl]oxy]-4-pyridyl]pyrazolo[1,5-a]pyridin-2-amine]",0.000883
7,"Cc1cc(-c2ccn3nc(Nc4cc(C(F)(F)F)ccn4)cc3c2)c(O[C@H]2C[C@H]3COC[C@@H](C2)N3C)cn1 [Example 413, 5-[2-methyl-5-[[(1R,5S,7s)-9-methyl-3-oxa-9-azabicyclo[3.3.1]nonan-7-yl]oxy]-4-pyridyl]-N-[4-(trifluoromethyl)-2-pyridyl]pyrazolo[1,5-a]pyridin-2-amine]",< 0.000847
8,"Cc1cc(-c2ccn3nc(Nc4cn(C)nn4)cc3c2)c(O[C@H]2C[C@H]3COC[C@@H](C2)N3C)cn1 [Example 414, 5-[2-methyl-5-[[(1R,5S,7s)-9-methyl-3-oxa-9-azabicyclo[3.3.1]nonan-7-yl]oxy]-4-pyridyl]-N-(1-methyltriazol-4-yl)pyrazolo[1,5-a]pyridin-2-amine]",0.0152
9,"Cc1cc(-c2ccn3nc(Nc4cncnc4)cc3c2)c(O[C@H]2C[C@H]3COC[C@@H](C2)N3C)cn1 [Example 415, 5-[2-methyl-5-[[(1S,5R,7s)-9-methyl-3-oxa-9-azabicyclo[3.3.1]nonan-7-yl]oxy]-4-pyridyl]-N-pyrimidin-5-yl-pyrazolo[1,5-a]pyridin-2-amine]",< 0.000847
10,"Cc1cnc(Nc2cc3cc(-c4cc(C)ncc4O[C@H]4C[C@H]5COC[C@@H](C4)N5C)ccn3n2)cn1 [Example 416, 5-[2-methyl-5-[[(1S,5R,7s)-9-methyl-3-oxa-9-azabicyclo[3.3.1]nonan-7-yl]oxy]-4-pyridyl]-N-(5-methylpyrazin-2-yl)pyrazolo[1,5-a]pyridin-2-amine]",< 0.000847
11,"Cc1cc(-c2ccn3nc(Nc4cc(C)nc(C)n4)cc3c2)c(O[C@H]2C[C@H]3COC[C@@H](C2)N3C)cn1 [Example 417, N-(2,6-dimethylpyrimidin-4-yl)-5-[2-methyl-5-[[(1S,5R,7s)-9-methyl-3-oxa-9-azabicyclo[3.3.1]nonan-7-yl]oxy]-4-pyridyl]pyrazolo[1,5-a]pyridin-2-amine]",< 0.000847
12,"Cc1cc(-c2ccn3nc(Nc4cnccn4)cc3c2)c(O[C@H]2C[C@H]3COC[C@@H](C2)N3C)cn1 [Example 418, 5-[2-methyl-5-[[(1S,5R,7s)-9-methyl-3-oxa-9-azabicyclo[3.3.1]nonan-7-yl]oxy]-4-pyridyl]-N-pyrazin-2-yl-pyrazolo[1,5-a]pyridin-2-amine]",< 0.000847
13,"Cc1cc(-c2ccn3nc(Nc4cccnn4)cc3c2)c(O[C@H]2C[C@H]3COC[C@@H](C2)N3C)cn1 [Example 419, 5-[2-methyl-5-[[(1R,5S,7s)-9-methyl-3-oxa-9-azabicyclo[3.3.1]nonan-7-yl]oxy]-4-pyridyl]-N-pyridazin-3-yl-pyrazolo[1,5-a]pyridin-2-amine]",< 0.000847
14,"Cc1cc(-c2ccn3nc(Nc4ccncn4)cc3c2)c(O[C@H]2C[C@H]3COC[C@@H](C2)N3C)cn1 [Example 420, 5-[2-methyl-5-[[(1R,5S,7s)-9-methyl-3-oxa-9-azabicyclo[3.3.1]nonan-7-yl]oxy]-4-pyridyl]-N-pyrimidin-4-yl-pyrazolo[1,5-a]pyridin-2-amine]",0.00236
15,"Cc1cc(Nc2cc3cc(-c4cc(C)ncc4O[C@H]4C[C@H]5COC[C@@H](C4)N5C)ccn3n2)ncn1 [Example 421, 5-[2-methyl-5-[[(1R,5S,7s)-9-methyl-3-oxa-9-azabicyclo[3.3.1]nonan-7-yl]oxy]-4-pyridyl]-N-(6-methylpyrimidin-4-yl)pyrazolo[1,5-a]pyridin-2-amine]",0.0122
16,"Cc1cc(-c2ccn3nc(Nc4cn(C)nc4C(O)C(F)(F)F)cc3c2)c(O[C@H]2C[C@H]3COC[C@@H](C2)N3C)cn1 (stereo partly drawn) [Example 422, 2,2,2-trifluoro-1-[1-methyl-4-[[5-[2-methyl-5-[[(1S,5R,7s)-9-methyl-3-oxa-9-azabicyclo[3.3.1]nonan-7-yl]oxy]-4-pyridyl]pyrazolo[1,5-a]pyridin-2-yl]amino]pyrazol-3-yl]ethanol]",< 0.000847
17,"Cc1cc(-c2ccn3nc(Nc4ccn(C)n4)cc3c2)c(O[C@H]2C[C@H]3COC[C@@H](C2)N3C)cn1 [Example 423, 5-[2-methyl-5-[[(1S,5R,7s)-9-methyl-3-oxa-9-azabicyclo[3.3.1]nonan-7-yl]oxy]-4-pyridyl]-N-(1-methylpyrazol-3-yl)pyrazolo[1,5-a]pyridin-2-amine]",0.0103
18,"Cc1cc(-c2ccn3nc(Nc4ccn(C)n4)cc3c2)c(OC[C@H]2CNCCO2)cn1 [Example 429, 5-[2-methyl-5-[[(2R)-morpholin-2-yl]methoxy]-4-pyridyl]-N-(1-methylpyrazol-3-yl)pyrazolo[1,5-a]pyridin-2-amine]",0.0122
19,"CC#Cc1cc(-c2ccn3nc(NC(=O)C4CC4)cc3c2)c(O[C@H]2C[C@H]3COC[C@@H](C2)N3)cn1 [Example 436, N-[5-[5-[[(1S,5R)-3-oxa-9-azabicyclo[3.3.1]nonan-7-yl]oxy]-2-prop-1-ynyl-4-pyridyl]pyrazolo[1,5-a]pyridin-2-yl]cyclopropanecarboxamide]",< 0.000847

# Same assay, conditions: enzyme 6 nM, 6 mM ATP and 400 μM HDAC5tide (each 2× final concentration); 30 minutes pre-incubation, 2 hours; ADP-Glo Max luminescence; read-out: SIK2 high ATP IC50 (μM) (Test Example 2)
row,IC50 [µM],Structure (SMILES)
1,0.00766,"Cc1cc(-c2ccn3nc(Nc4ccc(C(F)(F)F)cn4)cc3c2)c(OC[C@@H]2CNCCO2)cn1 [Example 424, 5-[2-methyl-5-[[(2S)-morpholin-2-yl]methoxy]-4-pyridyl]-N-[5-(trifluoromethyl)-2-pyridyl]pyrazolo[1,5-a]pyridin-2-amine]"
2,0.00568,"Cc1ccc(Nc2cc3cc(-c4cc(C)ncc4OC[C@@H]4CNCCO4)ccn3n2)nc1 [Example 425, 5-[2-methyl-5-[[(2S)-morpholin-2-yl]methoxy]-4-pyridyl]-N-(5-methyl-2-pyridyl)pyrazolo[1,5-a]pyridin-2-amine]"
3,0.00403,"Cc1cc(-c2ccn3nc(Nc4cccc(C)n4)cc3c2)c(OC[C@@H]2CNCCO2)cn1 [Example 426, 5-[2-methyl-5-[[(2S)-morpholin-2-yl]methoxy]-4-pyridyl]-N-(6-methyl-2-pyridyl)pyrazolo[1,5-a]pyridin-2-amine]"
4,0.00801,"Cc1cc(-c2ccn3nc(Nc4cnccn4)cc3c2)c(OC[C@H]2CNCCO2)cn1 [Example 430, 5-[2-methyl-5-[[(2R)-morpholin-2-yl]methoxy]-4-pyridyl]-N-pyrazin-2-yl-pyrazolo[1,5-a]pyridin-2-amine]"
5,0.00194,"Cc1cc(-c2ccn3nc(Nc4cnccn4)cc3c2)c(OC[C@@H]2CNCCO2)cn1 [Example 431, 5-[2-methyl-5-[[(2S)-morpholin-2-yl]methoxy]-4-pyridyl]-N-pyrazin-2-yl-pyrazolo[1,5-a]pyridin-2-amine]"
6,< 0.000847,"CC#Cc1cc(-c2ccn3nc(NC(=O)C4CC4)cc3c2)c(OCC2(N)COC2)cn1 [Example 433, N-[5-[5-[(3-aminooxetan-3-yl)methoxy]-2-prop-1-ynyl-4-pyridyl]pyrazolo[1,5-a]pyridin-2-yl]cyclopropanecarboxamide]"
7,< 0.000847,"CC#Cc1cc(-c2ccn3nc(NC(=O)C4CC4)cc3c2)c(OCC2(F)CNC2)cn1 [Example 434, N-[5-[5-[(3-fluoroazetidin-3-yl)methoxy]-2-prop-1-ynyl-4-pyridyl]pyrazolo[1,5-a]pyridin-2-yl]cyclopropanecarboxamide]"
8,< 0.000847,"CC#Cc1cc(-c2ccn3nc(Nc4ccn(C)n4)cc3c2)c(OCC2(F)CNC2)cn1 [Example 437, 5-[5-[(3-fluoroazetidin-3-yl)methoxy]-2-prop-1-ynyl-4-pyridyl]-N-(1-methylpyrazol-3-yl)pyrazolo[1,5-a]pyridin-2-amine]"

row,Structure (SMILES),IC50 [µM]
1,"CC#Cc1cc(-c2ccn3nc(NC(=O)C4CC4)cc3c2)c(O[C@H]2C[C@H](N)C2)cn1 [Example 435, N-(5-(5-((1r,3r)-3-aminocyclobutoxy)-2-(prop-1-yn-1-yl)pyridin-4-yl)pyrazolo[1,5-a]pyridin-2-yl)cyclopropanecarboxamide]",< 0.000847
